Measurements from the NIST ThermoML archive (doi:10.1007/s10765-011-0995-x).
± gives the expanded uncertainty stated by the source.

Experiments:
[1] = xn = mol fraction of the nth substance listed; details: 101 kPa, Liquid; for speed of sound: Pulse-echo method
[2] = refractive index (Na D-line) (dimensionless); xn = mol fraction of the nth substance listed; details: 101 kPa, Liquid, Standard Abbe refractometry

Cc1ccccc1Cl [2-chlorotoluene] + CCCCCCCCCCO
Details	mass density, [1] [kg/m3]	refractive index, [2]	speed of sound, [1] [m/s]	viscosity, [1] [mPa·s]
298.15 K, x1 = 0.0734	838.4 ± 0.41	1.4377 ± 0.0005	1373.9 ± 1.3	10 ± 0.097
298.15 K, x1 = 0.1537	852.15 ± 0.39	1.4413 ± 0.0005	1366.5 ± 1.3	8.277 ± 0.083
298.15 K, x1 = 0.2064	861.61 ± 0.38	1.444 ± 0.0005	1361.3 ± 1.3	7.283 ± 0.074
298.15 K, x1 = 0.2747	874.4 ± 0.36	1.4479 ± 0.0005	1354.2 ± 1.3	6.13 ± 0.065
298.15 K, x1 = 0.345	888.32 ± 0.34	1.4524 ± 0.0005	1346.6 ± 1.3	5.101 ± 0.057
298.15 K, x1 = 0.4107	902.06 ± 0.32	1.4569 ± 0.0005	1339.4 ± 1.3	4.289 ± 0.048
298.15 K, x1 = 0.489	919.52 ± 0.3	1.4628 ± 0.0005	1330.9 ± 1.3	3.477 ± 0.04
298.15 K, x1 = 0.5555	935.39 ± 0.28	1.4685 ± 0.0005	1323.8 ± 1.3	2.906 ± 0.033
298.15 K, x1 = 0.6158	950.72 ± 0.25	1.4741 ± 0.0005	1317.6 ± 1.3	2.468 ± 0.029
298.15 K, x1 = 0.6813	968.52 ± 0.23	1.4806 ± 0.0005	1311.5 ± 1.3	2.075 ± 0.024
298.15 K, x1 = 0.7475	987.82 ± 0.21	1.4878 ± 0.0005	1306 ± 1.3	1.742 ± 0.021
298.15 K, x1 = 0.8205	1010.87 ± 0.21	1.4966 ± 0.0005	1301.2 ± 1.3	1.446 ± 0.018
298.15 K, x1 = 0.884	1032.61 ± 0.24	1.505 ± 0.0005	1298.7 ± 1.3	1.235 ± 0.015
298.15 K, x1 = 0.9469	1056.04 ± 0.28	1.514 ± 0.0005	1298.5 ± 1.3	1.062 ± 0.014
298.15 K, x1 = 1	1077.41 ± 0.3	1.5219 ± 0.0005	1301.2 ± 1.3	0.943 ± 0.013
303.15 K, x1 = 0.0734	834.73 ± 0.42	1.4359 ± 0.0005	1358.4 ± 1.3	8.289 ± 0.083
303.15 K, x1 = 0.1537	848.3 ± 0.4	1.4394 ± 0.0005	1350.5 ± 1.3	6.862 ± 0.071
303.15 K, x1 = 0.2064	857.65 ± 0.39	1.4423 ± 0.0005	1344.9 ± 1.3	6.042 ± 0.064
303.15 K, x1 = 0.2747	870.31 ± 0.37	1.4462 ± 0.0005	1337.3 ± 1.3	5.103 ± 0.057
303.15 K, x1 = 0.345	884.08 ± 0.35	1.4505 ± 0.0005	1329.3 ± 1.3	4.266 ± 0.048
303.15 K, x1 = 0.4107	897.72 ± 0.33	1.4549 ± 0.0005	1321.7 ± 1.3	3.603 ± 0.041
303.15 K, x1 = 0.489	915.05 ± 0.3	1.4608 ± 0.0005	1312.7 ± 1.3	2.952 ± 0.034
303.15 K, x1 = 0.5555	930.83 ± 0.28	1.4664 ± 0.0005	1305.2 ± 1.3	2.486 ± 0.029
303.15 K, x1 = 0.6158	946.09 ± 0.26	1.4719 ± 0.0005	1298.8 ± 1.3	2.133 ± 0.025
303.15 K, x1 = 0.6813	963.84 ± 0.24	1.4784 ± 0.0005	1292.5 ± 1.3	1.806 ± 0.021
303.15 K, x1 = 0.7475	983.1 ± 0.21	1.4855 ± 0.0005	1286.9 ± 1.3	1.538 ± 0.019
303.15 K, x1 = 0.8205	1006.13 ± 0.2	1.4941 ± 0.0005	1282.3 ± 1.3	1.294 ± 0.016
303.15 K, x1 = 0.884	1027.9 ± 0.23	1.5023 ± 0.0005	1280 ± 1.3	1.124 ± 0.014
303.15 K, x1 = 0.9469	1051.38 ± 0.27	1.5111 ± 0.0005	1280.6 ± 1.3	0.984 ± 0.013
303.15 K, x1 = 1	1072.83 ± 0.3	1.5189 ± 0.0005	1284.1 ± 1.3	0.885 ± 0.012
308.15 K, x1 = 0.0734	831.1 ± 0.42	1.4339 ± 0.0005	1339.3 ± 1.3	6.889 ± 0.071
308.15 K, x1 = 0.1537	844.55 ± 0.4	1.4378 ± 0.0005	1330.9 ± 1.3	5.734 ± 0.062
308.15 K, x1 = 0.2064	853.84 ± 0.39	1.4406 ± 0.0005	1324.9 ± 1.3	5.078 ± 0.056
308.15 K, x1 = 0.2747	866.4 ± 0.37	1.4445 ± 0.0005	1316.8 ± 1.3	4.313 ± 0.049
308.15 K, x1 = 0.345	880.08 ± 0.35	1.4489 ± 0.0005	1308.2 ± 1.3	3.637 ± 0.041
308.15 K, x1 = 0.4107	893.62 ± 0.33	1.4534 ± 0.0005	1300 ± 1.3	3.08 ± 0.035
308.15 K, x1 = 0.489	910.82 ± 0.31	1.4592 ± 0.0005	1290.6 ± 1.3	2.528 ± 0.029
308.15 K, x1 = 0.5555	926.51 ± 0.29	1.4648 ± 0.0005	1283.1 ± 1.3	2.134 ± 0.025
308.15 K, x1 = 0.6158	941.68 ± 0.27	1.4702 ± 0.0005	1276.7 ± 1.3	1.837 ± 0.022
308.15 K, x1 = 0.6813	959.32 ± 0.24	1.4767 ± 0.0005	1270.8 ± 1.3	1.566 ± 0.019
308.15 K, x1 = 0.7475	978.5 ± 0.22	1.4839 ± 0.0005	1266.1 ± 1.3	1.338 ± 0.016
308.15 K, x1 = 0.8205	1001.49 ± 0.19	1.4924 ± 0.0005	1262.5 ± 1.3	1.135 ± 0.014
308.15 K, x1 = 0.884	1023.23 ± 0.23	1.5005 ± 0.0005	1261.6 ± 1.3	0.995 ± 0.013
308.15 K, x1 = 0.9469	1046.71 ± 0.26	1.5092 ± 0.0005	1262.2 ± 1.3	0.879 ± 0.012
308.15 K, x1 = 1	1068.24 ± 0.29	1.5169 ± 0.0005	1266.1 ± 1.3	0.805 ± 0.011
